Reference: patent publication US8822444B2, “Hepatitis C virus inhibitors” (Bristol-Myers Squibb Company, priority 2009, dated 2014)
pEC50: −log10 of the molar value. Like-named read-outs stand apart in the source and are kept apart here.

Test system: HCV 1b genotype
Experiment: HCV Replicon assay
Format: cell-based
Conditions: Hepatitis C virus, HCV 1b genotype replicon; for EC50: read-out: 1b EC50 (in nM or range); for pEC50: read-out: 1b EC50 Range
Protocol: An HCV Replicon assay was utilized in the present disclosure, and was prepared, conducted and validated as described in commonly owned PCT/US2006/022197 and in O'Boyle et. al. Antimicrob Agents Chemother. 2005 April; 49(4):1346-53. Assay methods incorporating luciferase reporters have also been used as described (Apath.com).
HCV-neo replicon cells and replicon cells containing mutations in the NS5A region were used to test the currently described family of compounds. The compounds were determined to have more than 10-fold less inhibitory activity on cells containing mutations than wild-type cells. Thus, the compounds of the present disclosure can be effective in inhibiting the function of the HCV NS5A protein and are understood to be as effective in combinations as previously described in application PCT/US2006/022197 and commonly owned WO/04014852. Further, the compounds of the present disclosure can be effective against the HCV 1b genotype. It should also be understood that the compounds of the present disclosure can inhibit multiple genotypes of HCV. […] In one embodiment, compounds of the present disclosure are inhibitory versus 1a, 1b, 2a, 2b, 3a, 4a, and 5a genotypes.

| SMILES | EC50 [nM] | pEC50 |
| --- | --- | --- |
| COC(=O)N[C@H](C(=O)N1CCC[C@H]1c1nc(C2=CCC(c3ccc(-c4c[nH]c([C@@H]5CCCN5C(=O)[C@@H](NC(=O)OC)C(C)C)n4)cc3)CC2)c[nH]1)C(C)C (mixture of isomers) [QC-9, methyl ((1S)-1-(((2S)-2-(4-(4-(4-(2-((2S)-1-((2S)-2-((methoxycarbonyl)amino)-3-methylbutanoyl)-2-pyrrolidinyl)-1H-imidazol-4-yl)phenyl)-1-cyclohexen-1-yl)-1H-imidazol-2-yl)-1-pyrrolidinyl)carbonyl)-2-methylpropyl)carbamate] | 0.011 | 8.34 to 8.70 |
| COC(=O)N[C@H](C(=O)N1CCC[C@H]1c1nc(-c2ccc(C3CCC(c4c[nH]c([C@@H]5CCCN5C(=O)[C@@H](NC(=O)OC)C(C)C)n4)CC3)cc2)c[nH]1)C(C)C (single isomer, unassigned) [QC-16] |  | 8.34 to 8.70 |
| COC(=O)N[C@H](C(=O)N1CCC[C@H]1c1nc(-c2ccc(C34CCC(c5c[nH]c([C@@H]6CCCN6C(=O)[C@@H](NC(=O)OC)C(C)C)n5)(CC3)CC4)cc2)c[nH]1)C(C)C [Example M-1, methyl ((1S)-1-(((2S)-2-(4-(4-(4-(2-((2S)-1-((2S)-2-((methoxycarbonyl)amino)-3-methylbutanoyl)-2-pyrrolidinyl)-1H-imidazol-4-yl)phenyl)bicyclo[2.2.2]oct-1-yl)-1H-imidazol-2-yl)-1-pyrrolidinyl)carbonyl)-2-methylpropyl)carbamate] | 0.009 | 8.34 to 8.70 |
| COC(=O)N[C@@H](C)C(=O)N1CCC[C@H]1c1nc(-c2ccc(C34CCC(c5c[nH]c([C@@H]6CCCN6C(=O)[C@H](C)NC(=O)OC)n5)(CC3)CC4)cc2)c[nH]1 [Example M-2, methyl ((1S)-2-((2S)-2-(4-(4-(4-(2-((2S)-1-(N-(methoxycarbonyl)-L-alanyl)-2-pyrrolidinyl)-1H-imidazol-4-yl)bicyclo[2.2.2]oct-1-yl)phenyl)-1H-imidazol-2-yl)-1-pyrrolidinyl)-1-methyl-2-oxoethyl)carbamate] |  | 7.00 to 8.34 |
| COC(=O)N[C@@H](C(=O)N1CCC[C@H]1c1nc(-c2ccc(C34CCC(c5c[nH]c([C@@H]6CCCN6C(=O)[C@H](NC(=O)OC)c6ccccc6)n5)(CC3)CC4)cc2)c[nH]1)c1ccccc1 [Example M-3, methyl ((1R)-2-((2S)-2-(4-(4-(4-(2-((2S)-1-((2R)-2-((methoxycarbonyl)amino)-2-phenylacetyl)-2-pyrrolidinyl)-1H-imidazol-4-yl)bicyclo[2.2.2]oct-1-yl)phenyl)-1H-imidazol-2-yl)-1-pyrrolidinyl)-2-oxo-1-phenylethyl)carbamate] |  | 8.34 to 8.70 |
| COC(=O)N[C@H](C(=O)N1CCC[C@H]1c1nc(-c2ccc(C34CCC(c5coc([C@@H]6CCCN6C(=O)[C@@H](NC(=O)OC)C(C)C)n5)(CC3)CC4)cc2)c[nH]1)C(C)C [Example M-4, methyl ((1S)-1-(((2S)-2-(4-(4-(4-(2-((2S)-1-((2S)-2-((methoxycarbonyl)amino)-3-methylbutanoyl)-2-pyrrolidinyl)-1H-imidazol-4-yl)phenyl)bicyclo[2.2.2]oct-1-yl)-1,3-oxazol-2-yl)-1-pyrrolidinyl)carbonyl)-2-methylpropyl)carbamate] |  | 5.00 to 6.00 |
| COC(=O)N[C@H](C(=O)N1[C@@H]2C[C@@H]2C[C@H]1c1ncc(-c2ccc(C34CCC(c5cnc([C@@H]6C[C@H]7C[C@H]7N6C(=O)[C@@H](NC(=O)OC)C(C)C)[nH]5)(CC3)CC4)cc2)[nH]1)C(C)C [Example M-5, methyl ((1S)-1-(((1R,3S,5R)-3-(5-(4-(4-(2-((1R,3S,5R)-2-((2S)-2-((methoxycarbonyl)amino)-3-methylbutanoyl)-2-azabicyclo[3.1.0]hex-3-yl)-1H-imidazol-5-yl)bicyclo[2.2.2]oct-1-yl)phenyl)-1H-imidazol-2-yl)-2-azabicyclo[3.1.0]hex-2-yl)carbonyl)-2-methylpropyl)carbamate] |  | 8.34 to 8.70 |
